Consider 27 molecules from US8377967B2, “Piperidine derivative” (Nippon Zoki Pharmaceutical Co., Ltd., priority 2008, dated 2013).

This assay has as its target human histamine H1 receptor (Homo sapiens, UniProt P35367). The experiment in a line: In vitro human histamine H1 receptor binding experiment ([3H]pyrilamine). Particulars: HEK293A cells stably expressing human histamine H1 receptor, [3H]pyrilamine 3 nmol/L, room temperature 60 minutes. How it is done: Recombinant human histamine H1 receptor plasmid (prepared by Invitrogen) was transfected to HEK293A cells with Lipofectamine 2000 (manufactured by Invitrogen). Cells stably expressing human histamine H1 receptor were screened with Geneticin (manufactured by Invitrogen). The cells were continued to be cultured using a Dulbecco's Modified Eagle Medium containing 10% fetal bovine serum, 0.1 mmol/L MEM Non-Essential Amino Acids Solution, 2 mmol/L L-glutamine and 0.7 mg/mL Geneticin in a 5% CO2 incubator at 37° C. The cells stably expressing human histamine H1 receptor were prepared using 50 mmol/L Tris-HCl (pH 7.5) (hereinafter referred to as buffer) containing 0.1% bovine serum albumin, so as to have a concentration of 3×10^6 cells/mL, to give a cell sample preparation. Fifty microliters of the buffer, 50 μl of a test substance solution at various concentrations, and 50 μL of [^3H]pyrilamine solution (final concentration: 3 nmol/L) were added to each of the wells on the 96-well plate, and stirred, and 100 μL of the cell sample preparation was then added thereto (at a concentration of 3×10^5 cells/well) to initiate the reaction.
The cells were incubated at room temperature for 60 minutes, and then filtered on UniFilter GF/C plate (manufactured by Packard) immersed in 0.5% polyethyleneimine using a cell harvester (IH-110, manufactured by INNOTECH CORPORATION), to stop the reaction, and the plate was washed with the buffer. The plate after washing was sufficiently dried, and 20 μL of a scintillator (MaxiLight, manufactured by Hidex) was added thereto, and count per minute (cpm) was measured with a multi-labeled microplate reader (Plate Chameleo II, manufactured by Hidex). The nonspecific binding was cpm in a case where 30 μmol/L pyrilamine was added. The experiments were carried out at n=3, and at least repeated 3 times.

Counter-ions that a name gives are not always drawn.

Sequence of human histamine H1 receptor (P35367 whole entry): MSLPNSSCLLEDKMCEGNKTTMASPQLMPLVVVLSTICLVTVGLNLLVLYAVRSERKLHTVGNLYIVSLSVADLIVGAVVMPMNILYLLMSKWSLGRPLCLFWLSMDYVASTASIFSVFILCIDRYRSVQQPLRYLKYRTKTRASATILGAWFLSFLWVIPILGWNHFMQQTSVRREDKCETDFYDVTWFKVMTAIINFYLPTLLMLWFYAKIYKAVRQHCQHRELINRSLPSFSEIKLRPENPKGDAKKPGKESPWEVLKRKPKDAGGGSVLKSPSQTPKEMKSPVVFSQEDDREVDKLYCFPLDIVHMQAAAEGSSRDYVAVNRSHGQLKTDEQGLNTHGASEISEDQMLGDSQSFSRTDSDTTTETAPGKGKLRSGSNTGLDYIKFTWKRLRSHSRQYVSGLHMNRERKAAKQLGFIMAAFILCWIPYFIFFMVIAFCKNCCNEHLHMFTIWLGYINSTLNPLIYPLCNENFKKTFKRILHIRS

What is called IC50 is the concentration that inhibits the measured activity by half. A higher IC50 goes with weaker potency. `CCOC(=O)CCc1cc2c(s1)CCc1ccccc1C2=C1CCN(C)CC1` [Compound 97, Ethyl 3-[4-(1-methylpiperidin-4-ylidene)-9,10-dihydro-4H-1-thiabenzo[f]azulen-2-yl]propionate] had an IC50 of 16.9 nM. For the molecule `CCOC(=O)c1cc2c(s1)CCc1ccccc1C2=C1CCN(CC)CC1` [Compound 103, Ethyl[4-(1-ethylpiperidin-4-ylidene)-9,10-dihydro-4H-1-thiabenzo[f]azulen-2-yl]carboxylate hydrochloride], the IC50 stood at 35.4 nM. This IC50 lies about 2.1-fold higher than the previous one. Consider `CN1CCC(=C2c3cc(CO)ccc3CCc3sccc32)CC1` [Compound 104, 6-(2-Hydroxymethyl)-4-(1-methylpiperidin-4-ylidene)-9,10-dihydro-4H-1-thiabenzo[f]azulene], for which the IC50 is 4.8 nM. Consider `CCOC(=O)c1cc2c(s1)CCc1ccccc1C2=C1CCN(CCO)CC1` [Compound 105, Ethyl {4-[1-(2-hydroxyethyl)piperidin-4-ylidene]-9,10-dihydro-4H-1-thiabenzo[f]azulen-2-yl}carboxylate], for which the IC50 amounted to 50.2 nM.

With `CCOC(=O)Cc1ccc2c(c1)C(=C1CCN(C)CC1)c1ccsc1CC2` [Compound 106, Ethyl[4-(1-methylpiperidin-4-ylidene)-9,10-dihydro-4H-1-thiabenzo[f]azulen-6-yl]acetate hydrochloride], the IC50 worked out at 7.04 nM.

In turn, `CCOC(=O)COCCN1CCC(=C2c3ccccc3CCc3sc(C(=O)OCC)cc32)CC1` [Compound 110, Ethyl {4-[1-(2-ethoxycarbonylmethoxyethyl)piperidin-4-ylidene]-9,10-dihydro-4H-1-thiabenzo[f]azulen-2-yl}carboxylate hydrochloride] yielded an IC50 of 23.4 nM. This IC50 lies about 3.3-fold higher than the previous one. Then `C=Cc1cc2c(s1)CCc1ccccc1C2=C1CCN(C)CC1` [Compound 112, 2-Vinyl-4-(1-methylpiperidin-4-ylidene)-9,10-dihydro-4H-1-thiabenzo[f]azulene], with 1.94 nM; and `CCOC(=O)c1ccc2c(c1)C(=C1CCN(C)CC1)c1sccc1CC2` [Compound 115, Ethyl 4-(1-methylpiperidin-4-ylidene)-9,10-dihydro-4H-3-thiabenzo[f]azulene-6-carboxylate], with 16.6 nM; and `COC(=O)Cc1ccc2c(c1)C(=C1CCN(C)CC1)c1ccsc1CO2` [Compound 116, Methyl[4-(1-methylpiperidin-4-ylidene)-4,10-dihydro-9-oxa-1-thiabenzo[f]azulen-6-yl]acetate hydrochloride], with 3.95 nM. For `CN1CCC(=C2c3cc(C(=O)O)ccc3CCc3ccsc32)CC1` [Compound 121, 4-(1-Methylpiperidin-4-ylidene)-9,10-dihydro-4H-3-thiabenzo[f]azulene-6-carboxylic acid] the value was 94.7 nM; for `OCCc1ccc2c(c1)C(=C1CCN(CCO)CC1)c1sccc1CO2` [Compound 122, 2-{4-[1-(2-Hydroxyethyl)piperidin-4-ylidene]-4,10-dihydro-9-oxa-3-thiabenzo[f]azulen-6-yl}ethanol], 13.4 nM; for `COC(=O)CCCc1ccc2c(c1)C(=C1CCN(C)CC1)c1sccc1CO2` [Compound 123, Methyl 4-[4-(1-methylpiperidin-4-ylidene)-4,10-dihydro-9-oxa-3-thiabenzo[f]azulen-6-yl]butyrate hydrochloride], 3.12 nM.

`CCCN1CCC(=C2c3ccccc3CCc3sc(C(=O)OCC)cc32)CC1` [Compound 133, Ethyl 4-(1-propylpiperidin-4-ylidene)-9,10-dihydro-4H-1-thiabenzo[f]azulene-2-carboxylate hydrochloride] gave an IC50 of 17 nM. With `CCN1CCC(=C2c3cc(CCCC(=O)OC)ccc3OCc3ccsc32)CC1` [Compound 141, Methyl 4-[4-(1-ethylpiperidin-4-ylidene)-4,10-dihydro-9-oxa-3-thiabenzo[f]azulen-6-yl]butyrate hydrochloride], the IC50 was determined as 6.77 nM. `CCOC(=O)Cc1ccc2c(c1)C(=C1CCN(C)CC1)c1sccc1CC2` [Compound 147, Ethyl[4-(1-methylpiperidin-4-ylidene)-9,10-dihydro-4H-3-thiabenzo[f]azulen-6-yl]acetate hydrochloride] registered a concentration for half-maximal inhibition (IC50) of 4.04 nM.

With `CCOC(=O)C(C)(C)c1cc2c(s1)CCc1ccccc1C2=C1CCN(CC)CC1` [Compound 154, Ethyl 2-[4-(1-ethylpiperidin-4-ylidene)-9,10-dihydro-4H-1-thiabenzo[f]azulen-2-yl]-2-methylpropionate hydrochloride], the half-inhibitory concentration (IC50) worked out at 25.6 nM. Molecule `COC(=O)CCCCc1ccc2c(c1)C(=C1CCN(C)CC1)c1sccc1CO2` [Compound 156, Methyl 5-[4-(1-methylpiperidin-4-ylidene)-4,10-dihydro-9-oxa-3-thiabenzo[f]azulen-6-yl]valerate hydrochloride] yielded an IC50 of 9.66 nM. Molecule `CN1CCC(=C2c3cc(CCCCC(=O)O)ccc3OCc3ccsc32)CC1` [Compound 157, 5-[4-(1-Methylpiperidin-4-ylidene)-4,10-dihydro-9-oxa-3-thiabenzo[f]azulen-6-yl]valeric acid] showed an IC50 of 90.5 nM. `CCOC(=O)C=Cc1cc2c(s1)CCc1ccccc1C2=C1CCN(CC)CC1` [Compound 158, Ethyl 3-[4-(1-ethylpiperidin-4-ylidene)-9,10-dihydro-4H-1-thiabenzo[f]azulen-2-yl]acrylate]: the IC50 came to 47 nM. `CCOC(=O)c1ccc2c(c1)C(=C1CCN(CC)CC1)c1sccc1CC2` [Compound 160, Ethyl 4-(1-ethylpiperidin-4-ylidene)-9,10-dihydro-4H-3-thiabenzo[f]azulene-6-carboxylate] registered an IC50 of 5.58 nM. `COC(=O)Cc1ccc2c(c1)C(=C1CCN(CCCN3CCCCC3)CC1)c1sccc1CO2` [Compound 163, Methyl {4-[1-(3-piperidin-1-yl-propyl)piperidin-4-ylidene]-4,10-dihydro-9-oxa-3-thiabenzo[f]azulen-6-yl}acetate dihydrochloride] showed an IC50 of 90.8 nM. On to `COC(=O)Cc1ccc2c(c1)C(=C1CCN(CCNC(N)=O)CC1)c1sccc1CO2` [Compound 174, Methyl {4-[1-(2-ureidoethyl)piperidin-4-ylidene]-4,10-dihydro-9-oxa-3-thiabenzo[f]azulen-6-yl}acetate], for which the IC50 was found to be 11 nM. In turn, `CC(OC(=O)OC1CCCCC1)OC(=O)c1cc2c(s1)CCc1ccccc1C2=C1CCN(C)CC1` (stereo not drawn) [Compound 176, 1-Cyclohexyloxycarbonyloxyethyl 4-(1-methylpiperidin-4-ylidene)-9,10-dihydro-4H-1-thiabenzo[f]azulene-2-carboxylate hydrochloride] gave an IC50 of 72.7 nM. Turning to `CCOCCN1CCC(=C2c3ccccc3CCc3sc(C(=O)OCC)cc32)CC1` [Compound 181, Ethyl 4-[1-(2-ethoxyethyl)piperidin-4-ylidene]-9,10-dihydro-4H-1-thiabenzo[f]azulene-2-carboxylate hydrochloride], the IC50 is 13 nM. Compared with the last molecule, the IC50 is about 5.6-fold lower. In turn, `COC(=O)CCCc1ccc2c(c1)C(=C1CCN(CCCC(C)=O)CC1)c1sccc1CO2` [Compound 187, Methyl 4-{4-[1-(4-oxopentyl)piperidin-4-ylidene]-4,10-dihydro-9-oxa-3-thiabenzo[f]azulen-6-yl}butyrate hydrochloride] returned an IC50 of 8.76 nM. The molecule `COC(=O)Cc1ccc2c(c1)C(=C1CCN(CCCNS(C)(=O)=O)CC1)c1sccc1CO2` [Compound 193, Methyl {4-[1-(3-methanesulfonylaminopropyl)piperidin-4-ylidene]-4,10-dihydro-9-oxa-3-thiabenzo[f]azulen-6-yl}acetate hydrochloride] showed an IC50 of 13.1 nM. This IC50 and that of the molecule before are within 1.5-fold of each other. `COC(=O)CCc1ccc2c(c1)C(=C1CCN(CCNS(C)(=O)=O)CC1)c1sccc1CO2` [Compound 195, Methyl 3-{4-[1-(2-methanesulfonylaminoethyl)piperidin-4-ylidene]-4,10-dihydro-9-oxa-3-thiabenzo[f]azulen-6-yl}propionate hydrochloride]: the IC50 was 11.7 nM.
